In brackets after ≈: the same amount, converted by molar mass.
Settings: buffer; pH 7.4; 200.0 µM

Row | Compound | solubility kinetic
1 | COC(=O)c1cccc(NC(=O)c2ccc3c(c2)C(=O)N(C(C)(C)C)C3=O)c1 | < 0.4 µg/mL
2 | OC(CN1CCOCC1)Cn1c2ccccc2c2ccccc21 (stereo not drawn) | > 46.6 µg/mL
3 | Cc1cc(C)n2nc(SCC(=O)N3CCCCC3C)nc2n1 (stereo not drawn) | > 47.9 µg/mL
4 | CCOc1ccc(C(=O)NC(C)CCc2ccccc2)cc1 (stereo not drawn) | 2.5 µg/mL (≈ 8.41 µM)
5 | CCn1c(CN(C)c2ccccc2)nc2ccccc21 | > 39.8 µg/mL
6 | COc1cccc(CNc2ccccn2)c1O | > 34.5 µg/mL
7 | C=CCN(Cc1ccc(Cl)s1)C(=O)c1ccc(F)c(S(=O)(=O)N2CCOCC2)c1 | 23.8 µg/mL (≈ 51.9 µM)
8 | Cn1c(O)c(C=NCCN2CCNCC2)c(=O)[nH]c1=O | > 42.2 µg/mL
9 | O=C(Cc1ccccc1)Nc1ccc2c(c1)OC1(CCCC1)O2 | 16.4 µg/mL (≈ 53 µM)
10 | Cc1[nH]c2ccccc2c1C(=O)CSc1ccccn1 | 1.4 µg/mL (≈ 4.96 µM)
11 | C/C(CC(=O)NC(C)c1ccccc1)=N\NC(N)=S (stereo not drawn) | > 41.8 µg/mL
12 | COC(=O)/C(C#N)=C/c1c[nH]c2ccccc12 | 7.1 µg/mL (≈ 31.4 µM)
13 | COc1ccc(N2CCN(C(=O)c3cc(C)oc3C)CC2)cc1 | 42.2 µg/mL (≈ 134 µM)
14 | CC(=O)Cn1cnc2scc(-c3ccc(C)c(C)c3)c2c1=O | 43.7 µg/mL (≈ 140 µM)
15 | O=C(NC1CCCC1)C(=O)c1c[nH]c2ccccc12 | 12.1 µg/mL (≈ 47.2 µM)
16 | Cn1cnnc1SCC(=O)Nc1ccc(OC(F)F)cc1 | > 47.1 µg/mL
17 | O=C(NC1CC1)C1CC(=O)N(c2ccccc2)C1 (stereo not drawn) | > 36.6 µg/mL
18 | Cc1[nH]c2ccc3ccccc3c2c(=O)c1C/C=C/Cl | 1.1 µg/mL (≈ 3.88 µM)
19 | Cc1ccc(NC(=O)OCc2cncs2)cc1 | > 37.2 µg/mL
20 | Cc1cc(Cl)n2c(nc3cc(F)c(F)cc32)c1C#N | 4.7 µg/mL (≈ 16.9 µM)
21 | O=[N+]([O-])c1ccc(CN2CCN(c3ccc(Cl)cc3)CC2)o1 | 4.7 µg/mL (≈ 14.6 µM)
22 | CN1C2CCC1CC(NC(=O)CSc1ccc(Cl)cc1)C2 (stereo not drawn) | > 48.7 µg/mL

Row | Compound | solubility kinetic
23 | Nc1ccccc1SC1CC(=O)N(c2ccc3c(c2)OCO3)C1=O (stereo not drawn) | < 0.4 µg/mL
24 | O=[N+]([O-])c1c(NCc2ccco2)ccc2nonc12 | 38.4 µg/mL (≈ 148 µM)
25 | Cc1ccccc1NC(=S)NCc1ccc(F)cc1 | > 41.2 µg/mL
26 | O=[N+]([O-])c1ccc(Cl)c(C[n+]2cccc3ccccc32)c1.[Br-] | 56.9 µg/mL
27 | CN(C)CC(O)CN(c1ccccc1)c1ccccc1 (stereo not drawn) | > 40.6 µg/mL
28 | O=C(Nc1ccccc1C(=O)NCCCN1CCOCC1)c1ccccc1 | > 55.1 µg/mL
29 | COc1ccc(N2C(=O)/C(=C/c3ccco3)C(=O)NC2=S)cc1 | 48.8 µg/mL (≈ 149 µM)
30 | CCC(=O)Nc1ccc(OCc2nc3ccccc3s2)cc1 | 2.3 µg/mL (≈ 7.36 µM)
31 | Cc1ccsc1CN(C)CC(=O)NCC(=O)Nc1ccc(F)c(F)c1F | 10.8 µg/mL (≈ 28 µM)
32 | Cc1ccc(NC(=O)c2cnccn2)c(Br)c1 | 4.2 µg/mL (≈ 14.4 µM)
33 | O=C(O)CC1(CC(=O)Nc2cccc(C(F)(F)F)c2)CCCC1 | > 49.4 µg/mL
34 | CSc1c(CC(=O)Nc2ccccc2)n(C)c2ccccc12 | 0.4 µg/mL (≈ 1.29 µM)
35 | Cc1ccc2cc(S(=O)(=O)NCCCN3CCOCC3)ccc2c1 | > 52.3 µg/mL
36 | COc1ccc(-c2nc3ccccc3c(=O)n2O)cc1 | 37.9 µg/mL (≈ 141 µM)
37 | C=CC(=O)NN(C)c1ncc(C(F)(F)F)cc1Cl | > 41.9 µg/mL
38 | Cc1ccc2c(c1)C1C[N+](C)(CC(=O)Nc3ccccc3Cl)CCC1N2C(=O)c1ccccc1Cl.[Cl-] (stereo not drawn) | > 81.7 µg/mL
39 | CC(=O)NC(c1ccc2ccccc2c1)c1ccc2cccnc2c1O (stereo not drawn) | 1.2 µg/mL (≈ 3.5 µM)
40 | O=C(NCC(c1ccco1)N1CCCC1)c1sc2cc(F)ccc2c1Cl (stereo not drawn) | 7.5 µg/mL (≈ 19.1 µM)
41 | Cc1cccc(C)c1N=C1C(=O)Nc2ccccc21 | 31.2 µg/mL (≈ 125 µM)
42 | O=C(NC1CCN(Cc2ccccc2)CC1)c1ccc2c(c1)OCCCO2 | 51.6 µg/mL (≈ 141 µM)
43 | CN(C(=O)/C=C/c1ccc2c(c1)OCO2)c1ccccc1 | 34.7 µg/mL (≈ 123 µM)
